US10294272B2, “Peptides with antagonistic activities against natural CXCR4” (Pharis Biotec GmbH, priority 2013, dated 2019)
No end group written: not given here.

Assays:
[1] = target: T1, CXCR4 (Mus musculus, UniProt P70658); assay: Progenitor cell mobilization in mice; type: in vivo; conditions: single i.p. administration
T1 construct: from tissue; host or cells: live mice (C57Bl/6J for mobilization)
Procedure: C57B1/6J mice (Janvier, Le Genest St. Isle, F R) were housed in the conventional vivarium of the Goethe-University Medical Center, Frankfurt, with food and water ad libitum. Mice received i.p. injections of 200 μL water or normal saline containing 10 mg/mL the peptide of SEQ ID NO 16. Blood was drawn at the indicated times following injection from the check pouch after careful skin disinfection. After hypotonic lysis, leukocytes were incubated in duplicate in cytokine-replete commercially available semi-solid media (3434, Stem Cell Technologies, Vancouver, B C) under standard conditions. CFU—C were scored on day 7, as described (Bönig et al., 2006). CFU—C were normalized to the blood volume incubated. All animal studies were done with permission of the local IACUC, in agreement with AAALAC guidelines.

[2] = target: T1, CXCR4; assay: Asthma mouse model (OVA challenge); type: in vivo; conditions: mice, i.p., allergen challenge with OVA
Procedure: Mice were sensitized by intraperitoneal (i.p.) injection on days 0, 1 and 2 of 50 μg ovalbumin (OVA, Sigma-Aldrich, A5503) adsorbed on 2 mg aluminium hydroxide (Sigma-Aldrich, 23918-6) in saline. Mice were challenged by intranasal (i.n.) instillation of 10 μg OVA in 25 μl saline (12.5 μl/nostril) or saline alone for control mice on days 5, 6 and 7 under anesthesia (50 mg/kg ketamine and 3.3 mg/kg xylazine, i.p.). the peptide of SEQ ID NO 16 or ALB409-423 in saline were administered i.p. (16 μmol/kg) two hours before each OVA challenge. Bronchoalveolar lavage (BAL) and differential cell counts were performed 24 h after the last OVA challenge as previously reported in (Rebber et al., 2012).

[3] = Transplantation of mobilized cells; type: in vivo
Procedure: […] animals were injected with the peptide of SEQ ID NO 16 (2 mg i.p in saline) or controls saline. Peripheral blood was individually harvested 1 hour post injection, counted, combined and competitively transplanted (660 μl blood equivalent) alongside 4×10^5 C57BL/6 CD45.1 BM cells into C57BL/6 Cd45.1 recipients.

[4] = tested on: Jurkat T cells; assay: CXCL12-induced migration of Jurkat T cells; type: cell-based
Procedure: Migration of Jurkat cells (ATCC) was analyzed using 6.5 mm diameter chambers with 5 μm pore filters (Transwell, 24-well cell culture, Coster, Boston, Mass.). 2×10^5 Jurkat cells were suspended in 200 μl Optimizer T-Cell Expansion SFM, and the cell suspensions were added to the upper chamber. Then, 10 nM CXCL12 (R&D System) and/or various concentrations of the peptide of SEQ ID NO 16 or its derivatives in 600 μl T-Cell Expansion SFM were added to the lower chamber. The cell culture chambers were incubated for 150 min in a cell culture incubator at 37° C. After incubation, chambers were removed, 100 μl of supernatants were taken and cells that migrated into the lower compartment were either counted directly using a hemocytometer or analyzed using the CellTiter-Glo Luminescent Cell Viability Assay as described above. All values represent mean numbers of migrated cells relative to CXCL12 only treated cells from a triplicate experiment±SD.

[5] = tested on: X4 HIV-2 strains; assay: TZM-bl infection assay, X4 HIV-2; type: cell-based; conditions: effects relatively modest
Procedure: (§1) HIV-1, HIV-2 and SIV molecular clones differing in coreceptor tropism were generated by transient transfection of 293T cells with proviral DNA by the calcium phosphate method (CalPhos™ Mammalian Transfection Kit, Clon-tech). After overnight incubation, the transfection mixture was replaced by DMEM medium supplemented with 10% FCS, and virus stocks were harvested 48 hrs post-transfection. Subsequently, the culture supernatant was centrifuged for 5 min at 3000 rpm to remove cell debris. The resulting virus stock was quantified by p24 (HIV) or p27 (SIV) antigen ELISA. Virus stocks were either used immediately or stored in aliquots at −80° C.
(§2) TZM-bl reporter cells containing the LacZ reporter gene under the control of the HIV-1 promoter were seeded in 96-well F-bottom microtiter plates (Greiner Bio-One). On the following day, the cells were preincubated with various dilutions of the peptide of SEQ ID NO 16 or its derivatives for 1 hour and subsequently infected with HIV-1, HIV-2, and SIV. Infection rates were determined after 2 days using the one-step Tropix Gal-Screen Kit, as recommended by the manufacturer.

[6] = tested on: other GPCRs; assay: GPCR antagonist screen; conditions: selectivity for CXCR4
Description: GPCR Antagonist Screen of the Peptide of SEQ ID NO 16

[7] = tested on: SIV strains; assay: TZM-bl infection assay, SIV; type: cell-based; conditions: effects relatively modest
Procedure: as §1, §2

[8] = tested on: Staphylococus aureus; assay: Antibacterial activity against Staphylococcus; type: cell-based

T1 sequence (P70658 whole entry): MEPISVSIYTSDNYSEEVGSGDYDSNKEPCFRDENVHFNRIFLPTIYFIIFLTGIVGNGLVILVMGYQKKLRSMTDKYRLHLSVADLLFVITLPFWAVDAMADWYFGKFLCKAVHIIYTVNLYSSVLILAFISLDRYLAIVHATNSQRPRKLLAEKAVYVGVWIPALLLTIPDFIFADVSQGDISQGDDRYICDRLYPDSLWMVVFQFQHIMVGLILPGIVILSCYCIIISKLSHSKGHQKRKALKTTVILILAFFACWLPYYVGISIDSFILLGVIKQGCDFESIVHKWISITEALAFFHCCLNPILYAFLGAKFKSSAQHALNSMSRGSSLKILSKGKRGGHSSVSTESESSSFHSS

LVRYTKKVPQVSTPTL [Derivative 408-423, LVRYTKKVPQVSTPTL]
mobilization of progenitor cells and neutrophils into the periphery [1]: significant mobilization | CXCR4-dependent infiltration of neutrophils, lymphocytes and eosinophils into the airways [2]: significantly reduced | infiltration of macrophages [2]: markedly reduced | engraftment rates after transplantation of cells from treated mice [3]: increased engraftment rates | CXCL12-induced migration of Jurkat T cells [4]: suppressed | infection by X4 HIV-2 strains [5]: inhibits infection | activity of a large number of other GPCRs [6]: not affected | infection by SIV strains [7]: inhibits infection | effects against Staphylococus aureus [8]: only modest effects
